These are literature values, as cited in PubChem BioAssay AID1259409 (Chemical Carcinogenesis Research Information System (CCRIS), 2018).

In this series the test system is rodent chemically induced tumor inhibition, incidence and multiplicity. In words: CCRIS tumor inhibitor studies. The note with it: Carcinogen: 3-METHYLCHOLANTHRENE, 56-49-5, Dose [Inhibitor]: 0.1% IN 0.05 ML ACETONE 2 HR AFTER APPLICATION OF THE CARCINOGEN THEN 1/2 D (STUDY DURATION: 15 WK), Route [Inhibitor]: DERMAL, Species: MOUSE, Strain/Sex: DDY/FEMALE, Dose [Carcinogen]: 0.3% IN 0.05 ML ACETONE 2/WK, Promoter: NONE USED.

Regarding `CCCC(=O)OC[C@@H](OC(=O)CCC)[C@@H](OC(=O)CCC)[C@H](Cn1c2nc(=O)[nH]c(=O)c-2nc2cc(C)c(C)cc21)OC(=O)CCC`, the “tumour outcome (control, treated, inhibition, significance)” value runs as follows: (Target Tissue: Type of Lesion: SKIN: PAPILLOMA) 7/50 (14%), 2/49 (4%), 71%, not calculated; (Target Tissue: Type of Lesion: SKIN: SQUAMOUS CELL CARCINOMA) 34/50 (68%), 20/49 (41%), 40%, p<0.01.
